Our source for the IC50 values is patent US11267824B2, “Inhibitors of indoleamine 2,3-dioxygenase and/or tryptophan 2,3-dioxygenase” (IDORSIA PHARMACEUTICALS LTD, priority 2017, dated 2022).

Test [1] has as its target Recombinant full-length human IDO1 (Homo sapiens (Human), UniProt P14902). Nature of the test: IDO1 enzymatic assay (IDO inhibitory activity). The format is biochemical. As to conditions: 2 nM enzyme, 5 μM L-tryptophan, pH6.5, 30 min pre-incubation, NFK quantified by LCMS; mean values if measured multiple times; read-out: hIDO activity (IC50 in nM). In short, it runs like this: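 N-His-tagged enzyme from E. coli at 2 nM in 37.5 mM phosphate pH6.5 with ascorbate, methylene blue, catalase; compounds 10 μM–0.5 nM, 0.6% DMSO, pre-incubated 30 min RT, then 5 μM L-tryptophan for 30 min RT. NFK quantified by LCMS against d5-tryptophan; IC50 from duplicate four-parameter fit, means where repeated.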

The target of test [2] is Recombinant human TDO comprising amino acids 19-407 (Homo sapiens (Human), UniProt P48775). Nature of the test: TDO2 enzymatic assay (TDO inhibitory activity). The format is biochemical. As to conditions: 15 nM enzyme, 200 μM L-tryptophan, pH7, 30 min pre-incubation, NFK quantified by LCMS; mean values if measured multiple times; read-out: hTDO activity (IC50 in nM). A digest of the protocol:
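His-tagged enzyme (15 nM, E. coli-expressed) in pH 7 phosphate buffer with ascorbate, catalase, BSA, Tween 20, 0.6% DMSO; 30 min RT pre-incubation with compound (10 μM–0.5 nM), then 200 μM L-tryptophan for 30 min RT. N′-formylkynurenine quantified by LCMS against deuterated tryptophan; IC50 by four-parameter fit, duplicates.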

For orientation: IC50 means the concentration needed to halve the response being measured.

Recombinant full-length human IDO1, sequence (P14902 whole entry): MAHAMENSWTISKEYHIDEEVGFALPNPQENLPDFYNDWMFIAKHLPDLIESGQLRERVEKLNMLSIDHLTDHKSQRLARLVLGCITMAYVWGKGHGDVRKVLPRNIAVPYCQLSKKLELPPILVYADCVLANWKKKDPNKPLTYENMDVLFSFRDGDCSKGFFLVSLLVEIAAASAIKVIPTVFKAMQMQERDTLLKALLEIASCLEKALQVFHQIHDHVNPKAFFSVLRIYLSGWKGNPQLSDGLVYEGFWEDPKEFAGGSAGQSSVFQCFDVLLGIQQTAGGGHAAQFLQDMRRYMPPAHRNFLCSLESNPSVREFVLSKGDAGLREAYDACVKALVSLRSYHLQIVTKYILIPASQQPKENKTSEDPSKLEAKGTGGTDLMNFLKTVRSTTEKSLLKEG
Recombinant human TDO comprising amino acids 19-407, sequence (P48775 19-406 limits assumed): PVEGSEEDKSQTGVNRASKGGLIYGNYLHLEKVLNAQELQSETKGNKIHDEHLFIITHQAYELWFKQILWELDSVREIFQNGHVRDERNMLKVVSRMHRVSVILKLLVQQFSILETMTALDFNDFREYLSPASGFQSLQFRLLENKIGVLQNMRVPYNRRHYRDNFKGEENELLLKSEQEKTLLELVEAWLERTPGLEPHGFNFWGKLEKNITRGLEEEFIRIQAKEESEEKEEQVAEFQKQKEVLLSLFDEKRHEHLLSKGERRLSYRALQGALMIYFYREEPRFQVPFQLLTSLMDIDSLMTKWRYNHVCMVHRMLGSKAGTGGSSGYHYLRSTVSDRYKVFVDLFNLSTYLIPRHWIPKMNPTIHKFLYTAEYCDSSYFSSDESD

In the case of `OC(c1c(C2CC(F)(F)C2)sc2cncn12)C1CCCCC1` (racemic) [Example 156, rac-Cyclohexyl-[2-(3,3-difluoro-cyclobutyl)-imidazo[5,1-b]thiazol-3-yl]-methanol], the concentration for half-maximal inhibition (IC50) in test [1] was determined as 1070 nM; in test [2], 1780 nM.
On the same counts, the results for `OC(CC1CCCCC1)c1c(C2CCCC2)sc2cncn12` (racemic) [Example 10, rac-2-Cyclohexyl-1-(2-cyclopentylimidazo[5,1-b]thiazol-3-yl)ethan-1-ol] are 384 nM and 277 nM.
For `COC1CCC(CC(O)c2c(C3CC3)sc3cncn23)CC1` (racemic) [Example 131, rac-1-(2-Cyclopropyl-imidazo[5,1-b]thiazol-3-yl)-2-(4-methoxy-cyclohexyl)-ethanol], the IC50 in test [1] stood at 11.3 nM; in test [2], 1330 nM.
As to `CC1(c2ccccc2)CCC(C(O)c2c(C3CC3)sc3cncn23)C1` (centres unmarked) [Example 88, (2-Cyclopropyl-imidazo[5,1-b]thiazol-3-yl)-(3-methyl-3-phenyl-cyclopentyl)-methanol], the values for the IC50 in test [1] and in test [2] were 76.7 nM and 1280 nM, respectively.
For `OC(c1c(-c2cccnc2)sc2cncn12)C1CCCCC1` (racemic) [Example 124, rac-Cyclohexyl-(2-pyridin-3-yl-imidazo[5,1-b]thiazol-3-yl)-methanol], the values for the IC50 in test [1] and in test [2] were 342 nM and 881 nM, respectively.
In the case of `CC1(C)CC(C(O)c2c(C3CC3)sc3cncn23)C1` (racemic) [Example 36, rac-(2-Cyclopropyl-imidazo[5,1-b]thiazol-3-yl)-(3,3-dimethyl-cyclobutyl)-methanol], the IC50 in test [1] worked out at 5.38 nM; in test [2], 269 nM.
In the same order, the values of `CC1CCCC(C(O)c2c(C3CC3)sc3cncn23)C1` (centres unmarked) [Example 27, (2-Cyclopropyl-imidazo[5,1-b]thiazol-3-yl)-(3-methyl-cyclohexyl)-methanol] are 17.2 nM and 384 nM.
For `OC(CC1CCC(c2ccccc2)CC1)c1c(C2CC2)sc2cncn12` (racemic) [Example 37, rac-1-(2-Cyclopropyl-imidazo[5,1-b]thiazol-3-yl)-2-(4-phenyl-cyclohexyl)-ethanol], the values for the IC50 in test [1] and in test [2] were 353 nM and 2460 nM, respectively.
In the same order, the values of `CC(C)c1sc2cncn2c1[C@@H](O)C1CCCCC1` [Example 3a, (S)-Cyclohexyl-(2-isopropyl-imidazo[5,1-b]thiazol-3-yl)-methanol] are 11.7 nM and 603 nM.
Regarding `CCCc1sc2cncn2c1C(O)CC1CCCCC1` (racemic) [Example 129, rac-2-Cyclohexyl-1-(2-propyl-imidazo[5,1-b]thiazol-3-yl)-ethanol], the IC50 in test [1] turned out to be 36.8 nM; in test [2], 595 nM.
For the molecule `CC1CCCC1C(O)c1c(C2CC2)sc2cncn12` (centres unmarked) [Example 48, (2-Cyclopropyl-imidazo[5,1-b]thiazol-3-yl)-(2-methyl-cyclopentyl)-methanol], the figures for the IC50 in test [1] and in test [2] were 8.4 nM and 70.6 nM, respectively.
With `OC(CC1CCCCC1)c1c(C2CCC2)sc2cncn12` (racemic) [Example 8, rac-1-(2-Cyclobutylimidazo[5,1-b]thiazol-3-yl)-2-cyclohexylethan-1-ol], the IC50 was determined as 122 nM in test [1] and 256 nM in test [2].
In the case of `OC(c1cccc(F)c1)c1c(C2CC2)sc2cncn12` (racemic) [Example 145, rac-(2-Cyclopropyl-imidazo[5,1-b]thiazol-3-yl)-(3-fluoro-phenyl)-methanol], the IC50 in test [1] came to 33.1 nM; in test [2] it was 449 nM.
Regarding `Cc1sc2cncn2c1C(O)c1cn(C2CCCC2)nn1` (racemic) [Example 199, rac-(1-Cyclopentyl-1H-[1,2,3]triazol-4-yl)-(2-methyl-imidazo[5,1-b]thiazol-3-yl)-methanol], the IC50 in test [1] is 835 nM; in test [2], above 10200 nM.
Consider `CC(C1CCCCC1)C(O)c1c(C2CC2)sc2cncn12` (centres unmarked) [Example 82, 2-Cyclohexyl-1-(2-cyclopropyl-imidazo[5,1-b]thiazol-3-yl)-propan-1-ol], for which the half-maximal inhibitory concentration (IC50) in test [1] was found to be 87.3 nM; in test [2], 822 nM.
Regarding `CCc1cccc(C(O)c2c(C3CC3)sc3cncn23)c1` (racemic) [Example 54, rac-(2-Cyclopropyl-imidazo[5,1-b]thiazol-3-yl)-(3-ethyl-phenyl)-methanol], the results for the IC50 in test [1] and in test [2] were 120 nM and 1850 nM, respectively.
With `OC(CC1CCCCC1)c1c(-c2ccsc2)sc2cncn12` (racemic) [Example 95, rac-2-Cyclohexyl-1-(2-thiophen-3-yl-imidazo[5,1-b]thiazol-3-yl)-ethanol], the IC50 in test [1] was 313 nM; in test [2] it was 386 nM.
With `O[C@H](c1c(C2CC2)sc2cncn12)C1CCCCC1` [Example 1a, (S)-Cyclohexyl(2-cyclopropylimidazo[5,1-b]thiazol-3-yl)methanol], the IC50 in test [1] was found to be 7.5 nM; in test [2], 115 nM.
In the case of `CCc1ccc(C(O)c2c(C3CC3)sc3cncn23)cc1` (racemic) [Example 53, rac-(2-Cyclopropyl-imidazo[5,1-b]thiazol-3-yl)-(4-ethyl-phenyl)-methanol], the IC50 in test [1] was found to be 60.1 nM; in test [2] it was 1530 nM.
Turning to `CC(C)Cc1sc2cncn2c1C(O)C1CCCCC1` (racemic) [Example 98, rac-Cyclohexyl-(2-isobutyl-imidazo[5,1-b]thiazol-3-yl)-methanol], the IC50 in test [1] worked out at 435 nM; in test [2] it was 583 nM.
With `CCCC1CCC(CC(O)c2c(C3CC3)sc3cncn23)CC1` (racemic) [Example 150, rac-1-(2-Cyclopropyl-imidazo[5,1-b]thiazol-3-yl)-2-(4-propyl-cyclohexy-etethanol], the IC50 amounted to 687 nM in test [1] and 3230 nM in test [2].
In the case of `OC(c1cccc(C(F)(F)F)c1)c1c(C2CC2)sc2cncn12` (racemic) [Example 143, rac-(2-Cyclopropyl-imidazo[5,1-b]thiazol-3-yl)-(3-trifluoromethyl-phenyl)-methanol], the results for the IC50 in test [1] and in test [2] were 587 nM and 765 nM, respectively.
As for `CC1(C)CCCC(C(O)c2c(C3CC3)sc3cncn23)C1` (centres unmarked) [Example 69, (2-Cyclopropyl-imidazo[5,1-b]thiazol-3-yl)-(3,3-dimethyl-cyclohexyl)-methanol], the IC50 amounted to 40 nM in test [1] and 255 nM in test [2].
Regarding `CC1CCCCC1CC(O)c1c(C(F)(F)F)sc2cncn12` (centres unmarked) [Example 117, 2-(2-Methyl-cyclohexyl)-1-(2-trifluoromethyl-imidazo[5,1-b]thiazol-3-yl)-ethanol], the IC50 in test [1] stood at 165 nM; in test [2], 2680 nM.
With `Cc1sc2cncn2c1C(O)CC1CCC(c2ccccc2)C1` (centres unmarked) [Example 107, 1-(2-Methyl-imidazo[5,1-b]thiazol-3-yl)-2-(3-phenyl-cyclopentyl)-ethanol], the IC50 came out at 167 nM in test [1] and 1890 nM in test [2].
Take `CC1(C(O)c2c(C(F)(F)F)sc3cncn23)CCCC1` (racemic) [Example 137, rac-(1-Methyl-cyclopentyl)-(2-trifluoromethyl-imidazo[5,1-b]thiazol-3-yl)-methanol]: the IC50 in test [1] turned out to be 16.3 nM; in test [2], 54.7 nM.
As for `CC(C)(C)c1sc2cncn2c1C(O)CC1CCCCC1` (racemic) [Example 12, rac-1-(2-(tert-Butyl)imidazo[5,1-b]thiazol-3-yl)-2-cyclohexylethan-1-ol], the figures for the IC50 in test [1] and in test [2] were 895 nM and 2130 nM, respectively.
In the same order, the values of `OC(CC1CCCC2CCCCC21)c1c(C2CC2)sc2cncn12` (centres unmarked) [Example 89, 1-(2-Cyclopropyl-imidazo[5,1-b]thiazol-3-yl)-2-(decahydro-naphthalen-1-yl)-ethanol] are 528 nM and 2130 nM.
Take `CCC1CCC(C(O)c2c(C3CC3)sc3cncn23)CC1` (racemic) [Example 45, rac-(2-Cyclopropyl-imidazo[5,1-b]thiazol-3-yl)-(4-ethyl-cyclohexyl)-methanol]: the IC50 in test [1] worked out at 35.7 nM; in test [2] it was 583 nM.
Take `OC(CC1CCC2CCCCC2C1)c1c(C2CC2)sc2cncn12` (centres unmarked) [Example 101, 1-(2-Cyclopropyl-imidazo[5,1-b]thiazol-3-yl)-2-(decahydro-naphthalen-2-yl)-ethanol]: the IC50 in test [1] is 485 nM; in test [2] it was 1790 nM.
Consider `CC1(C)CC(C(O)c2c(C(F)(F)F)sc3cncn23)C1` (racemic) [Example 110, rac-(3,3-Dimethyl-cyclobutyl)-(2-trifluoromethyl-imidazo[5,1-b]thiazol-3-yl)-methanol], for which the IC50 in test [1] is 9.81 nM; in test [2], 912 nM.
As for `Cc1sc2cncn2c1C(O)C1CCN(c2ccccc2)CC1` (racemic) [Example 169, rac-(2-Methyl-imidazo[5,1-b]thiazol-3-yl)-(1-phenyl-piperidin-4-yl)-methanol], the IC50 was 537 nM in test [1] and 3960 nM in test [2].
For `OC(CC1CCCCC1)c1c(Cl)sc2cncn12` (racemic) [Example 16, rac-1-(2-Chloro-imidazo[5,1-b]thiazol-3-yl)-2-cyclohexyl-ethanol], the IC50 in test [1] was determined as 159 nM; in test [2] it was 1210 nM.
On to `CC1(C)CC[C@@H]([C@H](O)c2c(C3CC3)sc3cncn23)C1` [Example 47a, (S)-(2-Cyclopropyl-imidazo[5,1-b]thiazol-3-yl)-((R)-3,3-dimethyl-cyclopentyl)-methanol], for which the IC50 was 15 nM in test [1] and 328 nM in test [2].
